From US20080317769A1, “Vaccine Composition Comprising Alpha-Galactosylceramide as an Adjuvant For Intranasal Administration” (priority 2005, published 2008)
“Also recorded” adds a separate entry of the source.

Tests used:
[1] = system: IFN-γ and IL-4 secretion; test: IFN-γ and IL-4 secretion of spleen and CLN cells cultured with OVA (sandwich ELISA), C57BL/6 mice; assay type: in vivo; conditions: cells cultured with 500 μg/ml OVA for 4 days, one week after final immunization
Protocol: It was directly investigated whether α-GalCer nasal vaccine adjuvant skews immune response into Th1 or Th2 immune response. To measure the secretions of cytokines, cells were obtained from spleen and cervical lymph node (CLN) a week after the final immunization. The cells ([…]) were cultured with 500 μg/ml of OVA for 4 days. The secretions of IFN-γ and IL-4 in the culture supernatant were measured by using the mouse IFN-γ and IL-4 OptELA set ELISA kit (BD Pharmigen) according to the manufacturer's instruction.

[2] = system: OVA-specific antibody responses; test: OVA-specific antibody responses after intranasal co-administration of OVA and αGalCer, Balb/c mice; assay type: in vivo
Protocol: To investigate whether αGalCer can be used as a strong adjuvant for a nasal vaccine in Balb/c mice, different amounts of αGalCer (0.15, 0.5, 2.0 μg) and 100 μg of OVA were intranasally administered to Balb/c mice by the same manner as described in Example 1, followed by measurement of OVA-specific IgG, OVA-specific IgG1 and IgG2a in serum and OVA-specific IgA responses in the nasal wash and the lung wash.

[3] = system: PR8 HA-specific antibody responses; set-up: species or system Balb/c mice; conditions: mouse, in vivo
[4] = system: IFN-γ-producing CD8+ T cells; test: IFN-γ-producing CD8+ T cells after β-galactosidase stimulation of spleen cells (Ad-LacZ immunization); assay type: in vivo; conditions: Balb/c mice; Ad-LacZ + 0.125 μg αGalCer intranasal; spleen cells stimulated with 2.5 μg/mL β-galactosidase for 5 days
Protocol: Balb/c mice were immunized with 10^6 pfu of replication-deficient live adenovirus harboring beta-galactosidase gene (Ad-LacZ) (Viromed, Korea) alone or together with 0.125 μg of αGalCer by the intranasal administration, two times at two-week intervals. One week after the final immunization, the nasal wash, the lung wash and serum were separated, by the same manner as described in Example 1, to measure β-galactosidase-specific antibody response. In addition, to measure CTL activity, spleen cells were stimulated by 2.5 μg/mL of β-galactosidase for 5 days and IFN-γ-producing CD8+ T cells were examined by intracellular cytokine staining according to the procedure as described in Example <4-2>.

[5] = system: inactivated influenza virus A/PR/8/34 (PR8); test: Humoral immune response after intranasal formalin-inactivated PR8 virus with αGalCer; assay type: in vivo; conditions: Balb/c mice
Protocol: (§1) To examine the role of αGalCer as an adjuvant of a killed virus, influenza virus A/PR/8/34 (PR8), which was inactivated with formalin, was used as an antigen to examine the anti-virus immune response. Balb/c mice were immunized with indicated amounts (1 μg, 10 μg) of inactivated PR8 alone or together with αGalCer by the intranasal administration twice at two-week intervals. Two weeks after the final immunization, the mice were sacrificed and following experiments were performed.
The nasal wash, the lung wash and serum were separated from the sacrificed mice and the antibody productions were observed therein by the same manner as described in Example 1.

[6] = system: P815 tumor cells infected with live PR8 virus; test: 51Cr release assay for CTL activity against PR8-infected P815 target cells; assay type: in vivo; conditions: Balb/c mice; inactivated PR8 with or without αGalCer intranasal; splenocytes, 51Cr-labeled PR8-infected P815 targets, 6 hours
Protocol: as §1
Single cells, separated from the spleen of the sacrificed mice, were cultured with stimulator cells for 5 days. To obtain stimulator cells, single cells were taken from the spleen of a naïve Balb/c mouse, which was irradiated with γ-ray, resulting in the inactivation of the cells. Then, the inactivated cells were infected with a live PR8 virus. After culturing splenocytes with stimulator cell for five days, effector cells were three-fold diluted serially, followed by further culture with ^51Cr-labeled target cells for 6 hours. Then, the amounts of ^51Cr […] in the culture supernatant were measured. The target cells were prepared by infecting P815 tumor cells (purchased from ATCC) with live PR8 virus and labeled with ^51Cr.

[7] = system: live PR8 virus; test: Plaque assay of live PR8 virus in the lung wash after 20 LD50 challenge; assay type: in vivo; conditions: Balb/c mice; 10 μg inactivated PR8 + αGalCer intranasal; three days after 20 LD50 live PR8
Protocol: as §1
Immunized mice were infected with 20 LD50 of live PR8 virus and sacrificed three days later to obtain the lung wash. The amounts of live PR8 virus in the lung wash were measured by plaque assay. Particularly, MDCK cells (purchased from ATCC) were cultured in a 6 well plate at the density of 95-100%. The lung wash was 10-fold diluted by using a medium serially, which was added to the plate, followed by infection for one hour. Then, the lung wash was eliminated. An agarose containing medium was added thereto, followed by further culture in a CO2 incubator for 2-3 days. The numbers of plaques formed therein were counted with the naked eye.

[8] = rodents and apes; cited from earlier work
[9] = mouse treated with 2200 μg/Kg of αGalCer; cited from earlier work
[10] = dose escalation study, 50-4800 μg/m^2; cited from earlier work
[11] = αGalCer (0.15, 0.5, 2.0 μg) + 100 μg OVA intranasal, vs vehicle alone or OVA alone

SMILES: CCCCCCCCCCCCCCCCCCCCCCCCCC(=O)N[C@@H](CO[C@H]1O[C@H](CO)[C@H](O)[C@H](O)[C@H]1O)[C@H](O)[C@H](O)CCCCCCCCCCCCCC [αGalCer, alpha-galactosylceramide]
- secretions of IFN-γ and IL-4 in spleen and CLN [1]: significantly increased
- IgG antibody level in serum, comparison of αGalCer doses ([2]; 0.5 μg of αGalCer intranasally coadministered with OVA): highest level of IgG antibody
- OVA-specific IgA responses in the nasal wash and the lung wash [2, 11]: higher OVA-specific IgA responses
- OVA-specific IgG response in serum [2, 11]: higher OVA-specific IgG response
- OVA-specific IgG1 and IgG2a titers ([2]; αGalCer + OVA intranasal, serum): increases
- PR8 HA-specific IgG antibody in serum [3]: high level
- numbers of IFN-γ-producing CD8+ T cells [4]: significant increase
- antigen-specific systemic IgG in serum ([5]; inactivated PR8 (1 μg, 10 μg) + αGalCer intranasal twice at two-week intervals, vs inactivated PR8 alone): significantly higher; also recorded: increased
- mucosal S-IgA in the nasal wash and the lung wash ([5]; inactivated PR8 + αGalCer intranasal twice at two-week intervals): remarkably increased
- target cell-specific lytic activity [6]: observed only in mice concurrently treated with αGalCer; also recorded: strong lytic activity
- plaques of live PR8 virus in the lung wash [7]: no plaque was observed
- toxicity [8]: seems not to induce toxicity
- side effects [9]: no side effects
- dose-limiting toxicity [10]: does not cause dose-limiting toxicity
